# Assay results: patent US11464770B2, “Anticancer pharmaceutical composition” (NATIONAL CANCER CENTER, priority 2016, dated 2022)
# Where two headings read alike, the source gives them in different places.
# Columns and labels:
# [1] = system: breast cancer cell lines (e.g. MDA-MB-231, SK-BR-3, MDA-MB-468, HCC1954); assay: Cell based assay, cell viability (CellTiter-Glo), breast cancer cell lines; conditions: 72 hours, CellTiter-Glo
# Procedure, shortened: (§1)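 Read-out is ATP-dependent luminescence (CellTiter-Glo) taken after 72 h of exposure to compound at final concentrations from 0 to 2 μM. Cells were plated 24 h beforehand.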
# neuroblastoma cell lines = assay: Cell based assay, cell viability (CellTiter-Glo), neuroblastoma cell lines; conditions: Homo sapiens; SH-SY5Y cell line
# Procedure, shortened: as §1
# [2] = system: ovarian cancer cell lines; assay: Cell based assay, cell viability (CellTiter-Glo), ovarian cancer cell lines; conditions: Homo sapiens; OVCAR-3 cells
# Procedure, shortened: as §1
# [3] = Breast cancer cell line MDA-MB-231-L/DOX, read-out: IC50, MDA-MB-231-L/DOX
# [4] = Homo sapiens, Breast cancer cell line BT-20, read-out: IC50, BT-20
# [5] = Homo sapiens, Breast cancer cell line HCC1395, read-out: IC50, HCC1395
# [6] = Homo sapiens, Breast cancer cell line HCC1954, read-out: IC50, HCC1954
# [7] = Homo sapiens, Breast cancer cell line JIMT-1, read-out: IC50, JIMT-1
# [8] = Homo sapiens, Breast cancer cell line MCF7, read-out: IC50, MCF7
# [9] = Homo sapiens, Breast cancer cell line MDA-MB-231, read-out: IC50, MDA-MB-231
# [10] = Homo sapiens, Breast cancer cell line MDA-MB-468, read-out: IC50, MDA-MB-468
# [11] = Homo sapiens, Breast cancer cell line SK-BR-3, read-out: IC50, SK-BR-3
SMILES,"IC50 [1, 3]","IC50 [1, 4]","IC50 [1, 5]","IC50 [1, 6]","IC50 [1, 7]","IC50 [1, 8]","IC50 [1, 9]","IC50 [1, 10]","IC50 [1, 11]",IC50 (neuroblastoma cell lines),IC50 [2]
"CC(=O)c1c([S+]([O-])Cc2ccc(SC(F)(F)F)cc2)[nH]c2c(Br)ccc(Cl)c2c1=O (stereo not shown) [Compound 56, 3-acetyl-8-bromo-5-chloro-2-((4-((trifluoromethyl)thio)benzyl)sulfinyl)quinolin-4(1H)-one]",> 2000 nM,> 2000 nM,> 10000 nM,1470 nM,> 10000 nM,> 2000 nM,1450 nM,1640 nM,1380 nM,> 2000 nM,1090 nM
"CC(=O)c1c([S+]([O-])Cc2ccc(F)c(Cl)c2)[nH]c2c(Br)ccc(Cl)c2c1=O (stereo not shown) [Compound 31, 3-acetyl-8-bromo-5-chloro-2-((3-chloro-4-fluorobenzyl)sulfinyl)quinolin-4(1H)-one]",> 2000 nM,> 2000 nM,> 10000 nM,> 2000 nM,> 10000 nM,> 2000 nM,1330 nM,> 2000 nM,950 nM,> 2000 nM,710 nM
"CC(=O)c1c([S+]([O-])Cc2ccc(OC(F)(F)F)cc2)[nH]c2c(Br)ccc(Cl)c2c1=O (stereo not shown) [Compound 71, 3-acetyl-8-bromo-5-chloro-2-((4-(trifluoromethoxy)benzyl)sulfinyl)quinolin-4(1H)-one]",> 2000 nM,> 2000 nM,> 10000 nM,> 2000 nM,> 10000 nM,> 2000 nM,> 2000 nM,> 2000 nM,1550 nM,> 2000 nM,1310 nM
"CC(=O)c1c([S+]([O-])Cc2ccc(C#N)cc2)[nH]c2c(Br)ccc(Cl)c2c1=O (stereo not shown) [Compound 73, 4-(((3-acetyl-8-bromo-5-chloro-4-oxo-1,4-dihydroquinolin-2-yl)sulfinyl)methyl)benzonitrile]",> 2000 nM,> 2000 nM,> 10000 nM,> 2000 nM,> 10000 nM,> 2000 nM,> 2000 nM,> 2000 nM,1200 nM,> 2000 nM,1110 nM
"CC(=O)c1c([S+]([O-])Cc2cc(F)cc(S(F)(F)(F)(F)F)c2)[nH]c2c(Br)ccc(Cl)c2c1=O (stereo not shown) [Compound 76, 3-acetyl-8-bromo-5-chloro-2-((3-fluoro-5-(pentafluoro--sulfanyl)benzyl)sulfinyl)quinolin-4(1H)-one]",> 2000 nM,> 2000 nM,> 10000 nM,> 2000 nM,> 10000 nM,> 2000 nM,> 2000 nM,> 2000 nM,1720 nM,> 2000 nM,1460 nM
"CC(=O)c1c([S+]([O-])Cc2c(F)cccc2Cl)[nH]c2c(Br)ccc(Cl)c2c1=O (stereo not shown) [Compound 74, 3-acetyl-8-bromo-5-chloro-2-((2-chloro-6-fluorobenzyl)sulfinyl)quinolin-4(1H)-one]",> 2000 nM,> 2000 nM,> 10000 nM,> 2000 nM,> 10000 nM,> 2000 nM,> 2000 nM,> 2000 nM,1060 nM,> 2000 nM,980 nM
"CC(=O)c1c([S+]([O-])Cc2ccc([S+]([O-])C(F)(F)F)cc2)[nH]c2c(Br)ccc(Cl)c2c1=O (stereo not shown) [Compound 64, 3-acetyl-8-bromo-5-chloro-2-((4-((trifluoromethyl)sulfinyl)benzyl)sulfinyl)quinolin-4(1H)-one]",> 2000 nM,> 2000 nM,> 10000 nM,> 2000 nM,> 10000 nM,> 2000 nM,> 2000 nM,> 2000 nM,1030 nM,> 2000 nM,900 nM
"COc1cc(C[S+]([O-])c2[nH]c3c(Br)ccc(Cl)c3c(=O)c2C(C)=O)cc(OC)c1 (stereo not shown) [Compound 59, 3-acetyl-8-bromo-5-chloro-2-((3,5-dimethoxybenzyl)sulfinyl)quinolin-4(1H)-one]",> 2000 nM,> 2000 nM,> 10000 nM,> 2000 nM,> 10000 nM,> 2000 nM,> 2000 nM,> 2000 nM,1080 nM,> 2000 nM,840 nM
"CC(=O)c1c([S+]([O-])Cc2cccc(F)c2)[nH]c2c(Br)ccc(Cl)c2c1=O (stereo not shown) [Compound 50, 3-acetyl-8-bromo-5-chloro-2-((3-fluorobenzyl)sulfinyl)quinolin-4(1H)-one]",> 2000 nM,> 2000 nM,> 10000 nM,> 2000 nM,> 10000 nM,> 2000 nM,> 2000 nM,> 2000 nM,1010 nM,> 2000 nM,890 nM
"CC(=O)c1c([S+]([O-])Cc2cc(Cl)ccc2Cl)[nH]c2c(Br)ccc(Cl)c2c1=O (stereo not shown) [Compound 44, 3-acetyl-8-bromo-5-chloro-2-((2,5-dichlorobenzyl)sulfinyl)quinolin-4(1H)-one]",> 2000 nM,> 2000 nM,> 10000 nM,> 2000 nM,> 10000 nM,> 2000 nM,> 2000 nM,> 2000 nM,1060 nM,> 2000 nM,840 nM
"COc1cccc(C[S+]([O-])c2[nH]c3c(Br)ccc(Cl)c3c(=O)c2C(C)=O)c1 (stereo not shown) [Compound 55, 3-acetyl-8-bromo-5-chloro-2-((3-methoxybenzyl)sulfinyl)quinolin-4(1H)-one]",> 2000 nM,> 2000 nM,> 10000 nM,> 2000 nM,> 10000 nM,> 2000 nM,> 2000 nM,> 2000 nM,1100 nM,> 2000 nM,920 nM
"CC(=O)c1c([S+]([O-])Cc2cc(C)on2)[nH]c2c(Br)ccc(Cl)c2c1=O (stereo not shown) [Compound 51, 3-acetyl-8-bromo-5-chloro-2-(((5-methylisoxazol-3-yl)methyl)sulfinyl)quinolin-4(1H)-one]",> 2000 nM,> 2000 nM,> 10000 nM,> 2000 nM,> 10000 nM,> 2000 nM,1550 nM,> 2000 nM,540 nM,> 2000 nM,850 nM
"CC(=O)c1c([S+]([O-])Cc2ccc(F)cc2F)[nH]c2c(Br)ccc(Cl)c2c1=O (stereo not shown) [Compound 29, 3-acetyl-8-bromo-5-chloro-2-((2,4-difluorobenzyl)sulfinyl)quinolin-4(1H)-one]",> 2000 nM,> 2000 nM,> 10000 nM,> 2000 nM,> 10000 nM,> 2000 nM,> 2000 nM,> 2000 nM,850 nM,> 2000 nM,800 nM
"CC(=O)c1c([S+]([O-])Cc2ccc(C(F)(F)F)cc2)[nH]c2c(Br)ccc(Cl)c2c1=O (stereo not shown) [Compound 70, 3-acetyl-8-bromo-5-chloro-2-((4-(trifluoromethyl)benzyl)sulfinyl)quinolin-4(1H)-one]",> 2000 nM,> 2000 nM,> 10000 nM,> 2000 nM,> 10000 nM,> 2000 nM,> 2000 nM,> 2000 nM,1210 nM,> 2000 nM,1180 nM
